Data set [1] in a line: Microsomal clearance, murine liver microsomes. Type of data set: in vitro ADME, mouse. The method, then: DMPK Methods. […] After a 5 min preincubation, the reaction was initiated by addition of NADPH (1 mM). At selected time intervals (0, 3, 7, 15, 25, and 45 min), 50 μL aliquots were taken and subsequently placed into a 96-well plate containing 150 μL of cold acetonitrile with internal standard (50 ng/mL carbamazepine). Plates were then centrifuged at 3000 rcf (4° C.) for 10 min, and the supernatant was transferred to a separate 96-well plate and diluted 1:1 with water for LC/MS/MS analysis. […] Liquid Chromatography/Mass Spectrometry Analysis. In vitro experiments. VU0456810 was analyzed on a Thermo Electron TSQ Quantum Ultra triple quad mass spectrometer (San Jose, Calif.) via electrospray ionization (ESI) with two Themo Electron Accella pumps (San Jose, Calif.), and a Leap Technologies CTC PAL autosampler (Carrboro, N.C.). Analytes were separated by gradient elution on a dual column system with two Thermo Hypersil Gold (2.1×30 mm, 1.9 μm) columns (San Jose, Calif.) at 40° C. […] The total run time was 1.3 min and the HPLC flow rate was 0.8 mL/min. […] Compound optimization, data collection and processing were performed using Thermo Electron's QuickQuan software (v2.3) and Xcalibur (v2.0.7 SP1).
On the technique in general: Microsomes from liver hold many membrane-bound enzymes, among them those of drug oxidation.

For data set [2], the target named is T1, Bradykinin B2 (Homo sapiens, UniProt P30411).
T1 construct: Ricerca
T1 sequence (P30411 whole entry): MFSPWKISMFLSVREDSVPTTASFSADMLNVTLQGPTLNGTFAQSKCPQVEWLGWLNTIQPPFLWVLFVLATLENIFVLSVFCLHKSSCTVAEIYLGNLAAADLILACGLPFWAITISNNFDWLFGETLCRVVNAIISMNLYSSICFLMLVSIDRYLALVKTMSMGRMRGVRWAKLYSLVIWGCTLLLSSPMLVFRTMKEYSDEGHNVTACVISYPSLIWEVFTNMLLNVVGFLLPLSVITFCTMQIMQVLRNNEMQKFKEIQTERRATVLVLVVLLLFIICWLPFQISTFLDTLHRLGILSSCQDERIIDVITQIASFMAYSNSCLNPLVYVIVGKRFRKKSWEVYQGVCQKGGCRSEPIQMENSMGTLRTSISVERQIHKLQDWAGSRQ
The experiment in a line: Radioligand displacement (Ricerca). Type of data set: binding. In general terms: In a radioligand displacement assay an active substance lowers the binding of a labelled ligand.

Each structure is given as a SMILES string.

Drawing on patent US9067894B1, “Compound, composition, and method of activating GIRK potassium channel and use of same for treating conditions of interest” (Vanderbilt University, priority 2013, dated 2015), this text covers rClHEP, CLhep predicted and inhibition for 1 molecule.

The term inhibition denotes the change of the read-out against control, counted positive when it falls. On to `Cc1cc(NC(=O)Nc2ccc(F)c(F)c2)n(-c2ccccc2)n1` [VU0456810, 1-(3,4-difluorophenyl)-3-(3-methyl-1-phenyl-1H-pyrazol-5-yl)urea], for which the rClHEP in data set [1] is 88 mL/min/kg. In addition, in data set [1] (mouse, pH 7.4), the CLhep predicted at 1 μM was 88 mL/min/kg. The inhibition at 10 µM in data set [2] was -1%.
